US7323490B2, “Pyrrole compounds and uses thereof” (Ambit Biosciences Corporation, priority 2003, dated 2008)
Several values for one entry are separate records, joined by “and”; a condition that tells them apart may be missing. Equal values may be shown once. Read-outs that look alike come from different tables or passages of the source.

Assays:
focal cerebral ischemia = details: for Infarct Volume: 1 h post, 24 h post MCAo, mean ± SEM; for Infarct Volume / infarct volume compared with controls (significance) / reduction in infarct volume from control: 48 h
Method: Control animals were injected with the vehicle for the test compounds. Survival was maintained for 48 hrs. The cortical infarction sizes were used as endpoints for efficacy evaluation.
Animal Preparation and Middle Cerebral Artery Occlusion. Male, adult, Sprague-Dawley rats (Charles River), weighing 300-400 grams, were used for the study. All animals were acclimated at least for five days before entering the study. Animals were housed in a standard animal facility and fed with commercial rodent chow ad libitum. All animals were anesthetized via intramuscular injection (4 mL/kg) of “cocktail” containing ketamine (25 mg/mL), xylazine (1.3 mg/mL) and acepromazine (0.33 mg/mL). Both carotid arteries were separated with great caution to minimize the vagal nerve stimulation. The right proximal MCA trunk was exposed through a subtemporal craniectomy without transecting the facial nerve. […] Immediately following MCA occlusion, both of the common carotid arteries were occluded for 1 hour using surgical aneurysm micro-clips (ROBOZ INC). Animals were put into temperature regulated recovery chamber for 1 hour before the clips were removed from the common carotid arteries. Body temperature was maintained at 37±0.5° C. during the surgery using a heating blanket connected to a temperature controller.
Compound Administration and Storage. In a blinded random investigation, all animals were injected with the compound(s) or vehicle via S.C. as bolus injection at 2 hours pre, 1 hour post and 24 hours post-MCAo.
Infarct Measurement. Forty-eight hours following MCAo, animals were euthanized with inhalation of CO2. Brains were removed and chilled in ice saline for 10 min. The brains were put in a metal rodent brain slicer. Each rat brain was cut coronally into 7 sections, with each section being 2 mm thick. The brain sections were immersed in 2% TTC solution for 30 min at 37° C. The areas of cerebral infarcts were determined on seven slices, using a computer-interfaced imaging system, Image-Pro® Plus, Version 4.4 for Windows (Media Cybernetics, MD). Infarct areas were then summed among slices and multiplied by slice thickness to give the total infarct volume.
Statistics. All data are expressed as mean±SEM. Infarct volume was analyzed using Student t Test. A p value of ≦0.05 was considered a statistically significant difference. All statistical analyses were performed with the software package JMP version 4.0 (SAS Institute Inc., Cary, N.C.).

[1] = tested on: focal cerebral infarcts (MCAo); experiment: Infarct volume measurement (H&E), Tamura MCAo model; format: in vivo, rat; details: day 7
Excerpt: Behavioral assessment as well as infarct volume of compound-treated animals in comparison to control (vehicle) volume animals was used for evaluating compound efficacy over a 7 day period.
Surgical Preparation. Middle Cerebral Artery Occlusion (MCAo), Tamura Model. Focal cerebral infarcts were made by permanent occlusion of the proximal right middle cerebral artery using a modification of the method of Tamura et al. Male Sprague-Dawley rats (300-350 g) were anesthetized with 2% isoflourane in 50% Air/50% O2, and maintained with 1-1.5% isoflourane. The temporalis muscle was bisected and reflected through an incision made midway between the eye and the eardrum canal. The proximal MCA was exposed through a subtemporal craniectomy without removing the zygomatic arch and without transecting the facial nerve. […] Body temperature was maintained at 38° C.±1 throughout the entire procedure. Animals were euthanatized at various time periods after MCA occlusion and the brains are removed for histological analysis.
Morphometric Analysis—Brain Perfusion. Seven days after the induction of focal ischemia, rats were deeply anesthetized with a ketamine, and xylazine cocktail. The animals were then perfused transcardially with normal saline (with heparin 2 unit/ml) followed by 4% paraformaldehyde for infarct volume measurement (H&E staining). Brains were removed and stored in 10% formalin to be sectioned and stained with Hematoxylin and Eosin.
Infarct Volume Measurement. Using the Image Pro-Plus imaging system, a total of 7 images per brain of the posterior side of each slice were analyzed through digital analysis. The total direct infarct volume was calculated for the left hemisphere using the equation below. Digitizing and computation was done under blinded conditions.
The total infarct volumes are calculated for each animal and subsequent group means were determined as volume of area (mm^3). To account for tissue shrinkage and possible edema the indirect method of infarct volume was calculated using the formula: Total Contralateral Hemisphere Volume−Total Infarcted Hemisphere Volume (mm^3)
Experimental Groups and Compound Administration. A total of 80 animals underwent MCAo using subcutaneous administration of all test articles, according to the experimental design illustrated in Table 16. […] The time schedules for administration of all treated groups (10 animals/group) was divided as follows:
All animals were treated with the compound(s)/vehicle(s) as a blinded random investigation. The dose and route of administration is given below in Table 16. Forty animals used in the first group of the study (group a.) Cerebral blood flow measurement was performed according to the protocol previously discussed on days 0, 1 and 5 with respect to MCAo.

[2] = tested on: focal cerebral infarcts (MCAo); experiment: Forelimb placing test, Tamura MCAo model; format: in vivo, rat; details: AVG, 0=normal, 10=maximally impaired
Excerpt: Surgical Preparation. Middle Cerebral Artery Occlusion (MCAo), Tamura Model. Focal cerebral infarcts were made by permanent occlusion of the proximal right middle cerebral artery using a modification of the method of Tamura et al. […] The temporalis muscle was bisected and reflected through an incision made midway between the eye and the eardrum canal. The proximal MCA was exposed through a subtemporal craniectomy without removing the zygomatic arch and without transecting the facial nerve. […] Animals were euthanatized at various time periods after MCA occlusion and the brains are removed for histological analysis. Behavioral Analysis. Two behavioral tests were performed, the limb placing and body swing test. […] Limb Placing. The limb placing tests were divided into both forelimb and hindlimb tests. For the forelimb-placing test, the examiner held the rat close to a tabletop and scored the rat's ability to place the forelimb on the tabletop in response to whisker, visual, tactile, or proprioceptive stimulation. Similarly, for the hindlimb placing test, the examiner assessed the rat's ability to place the hindlimb on the tabletop in response to tactile and proprioceptive stimulation. […] Typically, there was a slow and steady recovery of limb placing behavior during the first month after stroke. Experimental Groups and Compound Administration. A total of 80 animals underwent MCAo using subcutaneous administration of all test articles, according to the experimental design illustrated in Table 16. […] All animals were treated with the compound(s)/vehicle(s) as a blinded random investigation. The dose and route of administration is given below in Table 16.

[3] = administered six hours after MCAo
[4] = administered six hours after MCAo, listed as B
[5] = administered three hours after MCAo
[6] = administered three hours after MCAo, listed as B
[7] = administered six hours after MCAo, listed as A
[8] = administered three hours after MCAo, listed as A
[9] = administered six hours after MCAo, listed as C
[10] = administered three hours after MCAo, listed as C

Row | SMILES | Infarct Volume (focal cerebral ischemia; 1 mg/kg SC at 2 h pre) [mm^3] | infarct volume compared with controls (significance) (focal cerebral ischemia; 1 mg/kg SC) | Corrected Infarct Volume, Average [1, 3] [mm^3] | Percent Infarct Volume, Average [1, 3] [%] | Corrected Infarct Volume, Average [1, 5] [mm^3] | Percent Infarct Volume, Average [1, 5] [%] | Forelimb placing test score, D0 [2, 3] | Forelimb placing test score, D1 [2, 3] | Forelimb placing test score, D3 [2, 3] | Forelimb placing test score, D7 [2, 3] | Forelimb placing test score, D0 [2, 5] | Forelimb placing test score, D1 [2, 5] | Forelimb placing test score, D3 [2, 5] | Forelimb placing test score, D7 [2, 5] | other results
1 | CC(C)c1[nH]c(-c2ccc(F)cc2)c(-c2ccccc2)c1C(=O)Nc1ccccc1 [Compound 781430] | 152.83 ± 13.78 | not significantly different from controls | 283.4 | 26.92 | 213.77 | 22.29 | 0 | 8.9 | 8.5 | 6 | 0 | 8.9 | 7.6 | 4.3 | Infarct Volume (focal cerebral ischemia; 10 mg/kg SC at 2 h pre, listed as B): 65.99±25.01 mm^3; reduction in infarct volume from control (focal cerebral ischemia; 10 mg/kg SC): 57%; Corrected Infarct Volume, individual animals [1, 4]: 375.7 mm^3 and 204.5 mm^3 and 353.2 mm^3 and 262.2 mm^3 and 196.6 mm^3 and 352.4 mm^3 and 289.9 mm^3 and 195.4 mm^3 and 327.7 mm^3 and 276.5 mm^3; Percent Infarct Volume, individual animals [1, 4]: 31.4% and 21.7% and 26.2% and 33.9% and 15.6% and 29.1% and 28.8% and 25.4% and 35.3% and 21.8%; Corrected Infarct Volume, individual animals [1, 6]: 200.1 mm^3 and 231.7 mm^3 and 217.7 mm^3 and 173 mm^3 and 180.5 mm^3 and 224.1 mm^3 and 208.1 mm^3 and 233.4 mm^3 and 255.3 mm^3; Percent Infarct Volume, individual animals [1, 6]: 19.74% and 21.5679% and 24.3% and 20.62% and 19.71% and 23.99% and 22.56% and 24.24% and 23.9%
2 | CC(C)c1c(C(=O)Nc2ccccc2)c(-c2ccccc2)c(-c2ccc(F)cc2)n1CC(O)C(O)C(O)C(O)CO (stereo not drawn) [Compound 782236] |  |  | 239.27 | 26.69 | 212.59 | 23.53 | 0 | 9.2 | 8.9 | 7 | 0 | 8.4 | 6.7 | 5.9 | Infarct Volume (focal cerebral ischemia; 1 mg/kg SC at 2 h pre, listed as A): 71.32±36.98 mm^3; reduction in infarct volume from control (focal cerebral ischemia; 1 mg/kg SC): 53%; animals died within the 24-hour period after the second injection (focal cerebral ischemia; 10 mg/kg SC): Three; mortality rate (focal cerebral ischemia; 10 mg/kg SC): 60%; Corrected Infarct Volume, individual animals [1, 7]: 227.2 mm^3 and 166.6 mm^3 and 234.6 mm^3 and 269.8 mm^3 and 249 mm^3 and 215.8 mm^3 and 229 mm^3 and 213.3 mm^3 and 271.4 mm^3 and 316 mm^3; Percent Infarct Volume, individual animals [1, 7]: 25.6% and 31.5% and 24.6% and 28.8% and 28.1% and 28.9% and 24.8% and 23.5% and 25.3% and 25.8%; Corrected Infarct Volume, individual animals [1, 8]: 210.9 mm^3 and 272.5 mm^3 and 275.6 mm^3 and 163.8 mm^3 and 249 mm^3 and 229.2 mm^3 and 127.9 mm^3 and 222.3 mm^3 and 235 mm^3 and 139.8 mm^3; Percent Infarct Volume, individual animals [1, 8]: 25.1% and 29% and 23.7% and 15.8% and 28.1% and 25.9% and 15.9% and 27.5% and 25.4% and 18.9%
3 | CC(C)c1c(C(=O)Nc2ccccc2)c(-c2ccccc2)c(-c2ccc(F)cc2)n1CC[C@@H](O)C[C@@H](O)CC(=O)O [atorvastatin, reference compound] | 158.06 ± 32.83 | not significantly different from controls | 271.2 | 24.56 | 207.96 | 21 | 0 | 8.8 | 8.8 | 8 | 0 | 9.2 | 7.3 | 5.6 | Infarct Volume (focal cerebral ischemia; 10 mg/kg SC at 2 h pre): 124.71 ± 17.31 mm^3; infarct volume compared with controls (significance) (focal cerebral ischemia; 10 mg/kg SC): not significantly different from controls; Corrected Infarct Volume, individual animals [1, 9]: 138.8 mm^3 and 267.1 mm^3 and 232.3 mm^3 and 333 mm^3 and 214.3 mm^3 and 291.6 mm^3 and 338.3 mm^3 and 354.3 mm^3; Percent Infarct Volume, individual animals [1, 9]: 12.7% and 21.6% and 24.2% and 31% and 25.4% and 29.4% and 25.7% and 26.6%; Corrected Infarct Volume, individual animals [1, 10]: 208 mm^3 and 303.3 mm^3 and 262.3 mm^3 and 184.8 mm^3 and 243.8 mm^3 and 124 mm^3 and 162.8 mm^3 and 164.5 mm^3 and 218.2 mm^3; Percent Infarct Volume, individual animals [1, 10]: 18.35% and 28.2% and 31% and 16.2101% and 25.43% and 12.82% and 17.39% and 16.81% and 22.81%
